Like-named read-outs stand apart in the source and are kept apart here. Where a SMILES comes first, the peptide text is derived from it. Bridges are numbered along the chain shown (N, C = ends). [ ]: non-standard residue; d: D form. The star is where a group is joined. Ala(morpholin-4-yl) = N[C@@H](CN1CCOCC1)C(=O)O; Phe(4-COOH) = N[C@@H](Cc1ccc(C(=O)O)cc1)C(=O)O; Phe(4-CH2NH2) = NCc1ccc(C[C@H](N)C(=O)O)cc1; Bip = N[C@@H](Cc1ccc(-c2ccccc2)cc1)C(=O)O; Phe(4-CN) = N#Cc1ccc(C[C@H](N)C(=O)O)cc1; Phe(3-Me) = Cc1cccc(C[C@H](N)C(=O)O)c1; Phe(2-F) = N[C@@H](Cc1ccccc1F)C(=O)O; Val(3-OH) = CC(C)(O)[C@H](N)C(=O)O; 4Pal = N[C@@H](Cc1ccncc1)C(=O)O; Cha = N[C@@H](CC1CCCCC1)C(=O)O; Cit = NC(=O)NCCC[C@H](N)C(=O)O; Ahp(2) = CCCCC[C@H](N)C(=O)O; Carboxymethyl = O=C(O)C*; Orn = NCCC[C@H](N)C(=O)O; Pra = C#CC[C@H](N)C(=O)O; Dab = NCC[C@H](N)C(=O)O; Nva = CCC[C@H](N)C(=O)O; Abu = CC[C@H](N)C(=O)O; Dap = NC[C@H](N)C(=O)O; NHCH2CH2OMe = COCCN*; Bn = c1ccc(C*)cc1

The target in this test is T1, human PD-1 / PD-L1-Ig binding on Jurkat cell line over-expressing human PD-1 (Jurkat-PD-1) (Homo sapiens, UniProt Q15116).
T1 construct: expressed in transfected cells; host or cells: Jurkat
Nature of the test: Jurkat-PD-1 Cell Binding High-Content Screening Assay (CBA). Format: cell-based. The conditions noted are these: PE-labeled PD-L1-Ig 20 nM final. The procedure, abridged:
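Compounds were preincubated with Jurkat-hPD-1 cells in DMEM plus 10% fetal calf serum for 2 h at 37° C. Phycoerythrin-labeled PD-L1-Ig (20 nM final) was then added for 1 hour. Cells were fixed in 4% paraformaldehyde with Hoechst 33342, and bound fluorescence was quantified by high-content imaging.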

The mark [1] stands for this setting: Jurkat-PD-1 cells, read-out: Jurkat HPD1_PDL1 IC50.

T1 sequence (Q15116 25-288): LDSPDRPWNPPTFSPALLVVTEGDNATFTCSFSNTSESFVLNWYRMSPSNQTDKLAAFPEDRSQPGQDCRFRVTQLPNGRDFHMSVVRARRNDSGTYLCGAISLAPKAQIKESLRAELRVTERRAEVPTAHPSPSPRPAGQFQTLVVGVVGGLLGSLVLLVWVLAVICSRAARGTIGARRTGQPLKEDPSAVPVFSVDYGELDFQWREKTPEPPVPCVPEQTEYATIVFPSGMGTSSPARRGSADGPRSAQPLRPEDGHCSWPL

In general, IC50 refers to the point on the concentration scale where inhibition reaches its midpoint. For `Cc1cccc(C[C@@H]2NC(=O)[C@H](CC(=O)O)NC(=O)[C@H](Cc3ccc(OCC(=O)O)cc3)NC(=O)[C@H](CN)NC(=O)CSC[C@@H](C(=O)N[C@@H](C)C(N)=O)NC(=O)[C@H]([C@@H](C)O)NC(=O)[C@H](C(C)C)NC(=O)[C@H](CC3CCCCC3)NC(=O)[C@H](CCN)NC(=O)[C@@H](CC(C)C)NC(=O)[C@H](CCCN)NC(=O)[C@H](CCCN)NC(=O)[C@H](Cc3ccc(-c4ccccc4)cc3)NC(=O)[C@H](C(C)C)NC2=O)c1` [Compound 1311] ({CH2CO}-[Dap]Y(Carboxymethyl)D[Phe(3-Me)]V[Bip][Orn][Orn][dL][Dab][Cha]VTCA-NH2; thioether N-14), under setting [1], the IC50 came out at 16 nM.

For `C#CC[C@H](NC(=O)[C@H](CCN)NC(=O)[C@@H]1CSCC(=O)N[C@@H](CN2CCOCC2)C(=O)N[C@@H](Cc2ccc(OCC(=O)O)cc2)C(=O)N[C@@H](CC(=O)O)C(=O)N[C@@H](Cc2cccc(C)c2)C(=O)N[C@@H](Cc2ccc(OCC(=O)O)cc2)C(=O)N[C@@H](Cc2ccc(-c3ccccc3)cc2)C(=O)N[C@@H](Cc2ccc(OCC(=O)O)cc2)C(=O)N[C@@H](CCCN)C(=O)N[C@H](CC(C)C)C(=O)N[C@@H](CCN)C(=O)N[C@@H](CC2CCCCC2)C(=O)N[C@@H](C(C)(C)O)C(=O)N[C@@H]([C@@H](C)O)C(=O)N1)C(N)=O` [Compound 1859] ({CH2CO}-[Ala(morpholin-4-yl)]Y(Carboxymethyl)D[Phe(3-Me)]Y(Carboxymethyl)[Bip]Y(Carboxymethyl)[Orn][dL][Dab][Cha][Val(3-OH)]TC[Dab][Pra]-NH2; thioether N-14), the IC50 under setting [1] came to 2.1 nM.

Regarding `CC(C)C[C@H]1NC(=O)[C@H](CCCN)NC(=O)[C@H](C(C)C)NC(=O)[C@H](Cc2ccc(-c3ccccc3)cc2)NC(=O)[C@H](Cc2ccc(OCc3ccccc3)cc2)NC(=O)[C@H](Cc2c[nH]c3ccccc23)NC(=O)[C@H](CC(=O)O)NC(=O)[C@H](Cc2ccc(OCC(=O)O)cc2)NC(=O)[C@H](CN)NC(=O)CSC[C@@H](C(=O)N[C@@H](C)C(N)=O)NC(=O)[C@H]([C@@H](C)O)NC(=O)[C@H](C(C)C)NC(=O)[C@H](CC2CCCCC2)NC(=O)[C@H](CCN)NC1=O` [Compound 1529] ({CH2CO}-[Dap]Y(Carboxymethyl)DWY(Bn)[Bip]V[Orn][dL][Dab][Cha]VTCA-NH2; thioether N-14), the IC50 (Jurkat HPD1_PDL1 IC50, Jurkat-PD-1 cells) is 43.5 nM.

In the case of `CC[C@@H]1NC(=O)[C@H](Cc2c[nH]c3ccccc23)NC(=O)[C@H](CC(=O)O)NC(=O)[C@H](Cc2ccc(OCC(=O)O)cc2)NC(=O)[C@H](CN)NC(=O)CSC[C@@H](C(=O)N[C@@H](C)C(N)=O)NC(=O)[C@H]([C@@H](C)O)NC(=O)[C@H](C(C)C)NC(=O)[C@H](CC2CCCCC2)NC(=O)[C@H](CCN)NC(=O)[C@@H](CC(C)C)NC(=O)[C@H](CCCN)NC(=O)[C@H]([C@@H](C)CC)NC(=O)[C@H](Cc2ccc(-c3ccccc3)cc2)NC1=O` [Compound 1721] ({CH2CO}-[Dap]Y(Carboxymethyl)DW[Abu][Bip]I[Orn][dL][Dab][Cha]VTCA-NH2; thioether N-14), the IC50 under setting [1] came to 11.3 nM.

In the case of `Cc1cccc(C[C@@H]2NC(=O)[C@H](CC(=O)O)NC(=O)[C@H](Cc3ccc(C(=O)O)cc3)NC(=O)[C@H](Cc3ccc(OCC(=O)O)cc3)NC(=O)CSC[C@@H](C(=O)NCC(N)=O)NC(=O)[C@H](CO)NC(=O)[C@H](C(C)C)NC(=O)[C@H](CC(C)C)NC(=O)[C@H](CCN)NC(=O)[C@@H](CC(C)C)NC(=O)[C@H](CCCN)NC(=O)[C@H](C(C)C)NC(=O)[C@H](Cc3ccc(-c4ccccc4)cc3)NC(=O)[C@H](CC(C)C)NC2=O)c1` [Compound 1260] ({CH2CO}-Y(Carboxymethyl)[Phe(4-COOH)]D[Phe(3-Me)]L[Bip]V[Orn][dL][Dab]LVSCG-NH2; thioether N-14), the half-maximal inhibitory concentration (IC50) under setting [1] stood at 7.4 nM.

As to `CC(C)C[C@H]1NC(=O)[C@H](CCCN)NC(=O)[C@H](CCC(=O)O)NC(=O)[C@H](Cc2ccc(-c3ccccc3)cc2)NC(=O)[C@H](C(C)C)NC(=O)[C@H](Cc2ccccc2F)NC(=O)[C@H](CC(=O)O)NC(=O)[C@H](Cc2ccc(C#N)cc2)NC(=O)[C@H](Cc2ccccc2)NC(=O)CSC[C@@H](C(=O)N[C@@H](C)C(N)=O)NC(=O)[C@H]([C@@H](C)O)NC(=O)[C@H](C(C)C)NC(=O)[C@H](CC2CCCCC2)NC(=O)[C@H](CCN)NC1=O` [Compound 2213] ({CH2CO}-F[Phe(4-CN)]D[Phe(2-F)]V[Bip]E[Orn][dL][Dab][Cha]VTCA-NH2; thioether N-14), under setting [1], the IC50 worked out at 59.2 nM.

Turning to `CC(C)C[C@@H]1NC(=O)[C@H](Cc2c[nH]c3ccccc23)NC(=O)[C@H](CC(=O)O)NC(=O)[C@H](Cc2ccc(O)cc2)NC(=O)[C@H](Cc2ccccc2)NC(=O)CSC[C@@H](C(=O)NCC(N)=O)NC(=O)[C@H](CO)NC(=O)[C@H](C(C)C)NC(=O)[C@H](CC(C)C)NC(=O)[C@H](CC(N)=O)NC(=O)[C@@H](C)NC(=O)[C@H](CCN)NC(=O)[C@H](C(C)C)NC(=O)[C@H](Cc2ccc(-c3ccccc3)cc2)NC1=O` [Compound 1102] ({CH2CO}-FYDWL[Bip]V[Dab][dA]NLVSCG-NH2; thioether N-14), the IC50 under setting [1] was found to be 71.1 nM.

Turning to `Cc1cccc(C[C@@H]2NC(=O)[C@H](CC(=O)O)NC(=O)[C@H](Cc3ccc(OCC(=O)O)cc3)NC(=O)[C@H](CN)NC(=O)CSC[C@@H](C(=O)N[C@@H](C)C(=O)N[C@@H](CCC(=O)O)C(N)=O)NC(=O)[C@H]([C@@H](C)O)NC(=O)[C@H](C(C)C)NC(=O)[C@H](CC3CCCCC3)NC(=O)[C@H](CCN)NC(=O)[C@@H](CC(C)C)NC(=O)[C@H](CCCN)NC(=O)[C@H](CCCNC(N)=O)NC(=O)[C@H](Cc3ccc(-c4ccccc4)cc3)NC(=O)[C@H](C(C)C)NC2=O)c1` [Compound 1297] ({CH2CO}-[Dap]Y(Carboxymethyl)D[Phe(3-Me)]V[Bip][Cit][Orn][dL][Dab][Cha]VTCAE-NH2; thioether N-14), under setting [1], the IC50 is 9.4 nM.

In the case of `CC(C)C[C@H]1NC(=O)[C@H](CCCN)NC(=O)[C@H](CCC(=O)O)NC(=O)[C@H](Cc2ccc(-c3ccccc3)cc2)NC(=O)[C@H](C(C)C)NC(=O)[C@H](Cc2c[nH]c3ccccc23)NC(=O)[C@H](CC(=O)O)NC(=O)[C@H](Cc2ccc(OCC(=O)O)cc2)NC(=O)[C@H](CN)NC(=O)CSC[C@@H](C(=O)N[C@@H](C)C(N)=O)NC(=O)[C@H]([C@@H](C)O)NC(=O)[C@H](C(C)C)NC(=O)[C@H](CC2CCCCC2)NC(=O)[C@H](Cc2cnc[nH]2)NC1=O` [Compound 1518], the IC50 under setting [1] was found to be 18.7 nM.

For the molecule `Cc1cccc(C[C@@H]2NC(=O)[C@H](CC(=O)O)NC(=O)[C@H](Cc3ccc(C(=O)O)cc3)NC(=O)[C@H](Cc3ccncc3)NC(=O)CSC[C@@H](C(=O)N[C@@H](CCN)C(N)=O)NC(=O)[C@H](CCC(=O)O)NC(=O)[C@H](C(C)C)NC(=O)[C@H](CC3CCCCC3)NC(=O)[C@H](CCN)NC(=O)[C@@H](CC(C)C)NC(=O)[C@H](CCCN)NC(=O)[C@H](Cc3ccc(OCC(=O)O)cc3)NC(=O)[C@H](Cc3ccc(-c4ccccc4)cc3)NC(=O)[C@H](Cc3ccc(OCC(=O)O)cc3)NC2=O)c1` [Compound 2308] ({CH2CO}-[4Pal][Phe(4-COOH)]D[Phe(3-Me)]Y(Carboxymethyl)[Bip]Y(Carboxymethyl)[Orn][dL][Dab][Cha]VEC[Dab]-NH2; thioether N-14), the IC50 under setting [1] came to 7.5 nM.

For `CCC[C@@H]1NC(=O)CSC[C@@H](C(=O)N[C@@H](CCN)C(=O)NCCOC)NC(=O)[C@H](CO)NC(=O)[C@H](C(C)(C)O)NC(=O)[C@H](CC2CCCCC2)NC(=O)[C@H](CCN)NC(=O)[C@@H](CC(C)C)NC(=O)[C@H](CCCN)NC(=O)[C@H](Cc2ccc(OCC(=O)O)cc2)NC(=O)[C@H](Cc2ccc(-c3ccccc3)cc2)NC(=O)[C@H](Cc2ccc(OCC(=O)O)cc2)NC(=O)[C@H](Cc2cccc(C)c2)NC(=O)[C@H](CC(=O)O)NC(=O)[C@H](Cc2ccc(OCC(=O)O)cc2)NC1=O` [Compound 2074] ({CH2CO}-[Nva]Y(Carboxymethyl)D[Phe(3-Me)]Y(Carboxymethyl)[Bip]Y(Carboxymethyl)[Orn][dL][Dab][Cha][Val(3-OH)]SC[Dab]-NHCH2CH2OMe; thioether N-14), the IC50 under setting [1] is 4.4 nM.

Consider `CCCC[C@H]1NC(=O)[C@H](CCCN)NC(=O)[C@H](C(C)C)NC(=O)[C@H](Cc2ccc(-c3ccccc3)cc2)NC(=O)[C@H](C(C)C)NC(=O)[C@H](Cc2c[nH]c3ccccc23)NC(=O)[C@H](CC(=O)O)NC(=O)[C@H](Cc2ccncc2)NC(=O)[C@H](Cc2ccc(OCC(=O)O)cc2)NC(=O)CSC[C@@H](C(=O)N[C@@H](C)C(N)=O)NC(=O)[C@H]([C@@H](C)O)NC(=O)[C@H](C(C)C)NC(=O)[C@H](CC2CCCCC2)NC(=O)[C@H](CCN)NC1=O` [Compound 1694], for which, under setting [1], the concentration for half-maximal inhibition (IC50) stood at 34.5 nM.

Regarding `CC(C)C[C@@H]1NC(=O)[C@H](Cc2c[nH]c3ccccc23)NC(=O)[C@H](CC(=O)O)NC(=O)[C@H](Cc2ccc(CN)cc2)NC(=O)[C@H](Cc2ccccc2)NC(=O)CSC[C@@H](C(=O)N[C@@H](C)C(N)=O)NC(=O)[C@H](CO)NC(=O)[C@H](C(C)C)NC(=O)[C@H](CC2CCCCC2)NC(=O)[C@H](CN)NC(=O)[C@@H](CC(C)C)NC(=O)[C@H](CCCN)NC(=O)[C@H](CCCNC(N)=O)NC(=O)[C@H](Cc2ccc(-c3ccccc3)cc2)NC1=O` [Compound 2503] ({CH2CO}-F[Phe(4-CH2NH2)]DWL[Bip][Cit][Orn][dL][Dap][Cha]VSCA-NH2; thioether N-14), under setting [1], the concentration for half-maximal inhibition (IC50) worked out at 33 nM.

Consider `CCCCC[C@@H]1NC(=O)[C@H](CCN)NC(=O)[C@@H](CC(C)C)NC(=O)[C@H](CCCN)NC(=O)[C@H](CCCNC(N)=O)NC(=O)[C@H](Cc2ccc(-c3ccccc3)cc2)NC(=O)[C@H](C(C)C)NC(=O)[C@H](Cc2c[nH]c3ccccc23)NC(=O)[C@H](CC(=O)O)NC(=O)[C@H](Cc2ccc(OCC(=O)O)cc2)NC(=O)[C@H](CN)NC(=O)CSC[C@@H](C(=O)N[C@@H](C)C(N)=O)NC(=O)[C@H]([C@@H](C)O)NC(=O)[C@H](C(C)C)NC1=O` [Compound 1347] ({CH2CO}-[Dap]Y(Carboxymethyl)DWV[Bip][Cit][Orn][dL][Dab][Ahp(2)]VTCA-NH2; thioether N-14), for which the IC50 under setting [1] was 26.4 nM.

Values taken from US20250163104A1, “MACROCYCLIC IMMUNOMODULATORS” (priority 2021, published 2025).
